Entries after “also recorded” stand apart in the source; their conditions may differ.
How the values were obtained:
[1] = test system: foot ulcer induced by acetic acid; assay: Diabetic rat foot ulcer curing action (STZ diabetic rats, foot ulcer induced by acetic acid); format: in vivo; conditions: for Ulcer area after administration of acetic acid / Swelling score after administration of acetic acid: diabetic rat, 0.2% in PEG400 applied, average, n=6; for Swelling score after administration of acetic acid: score 0-3
Protocol: (§1) The action of the compound (applied) in accordance with this invention on a foot ulcer induced by acetic acid was examined by using normal and diabetic rats. Diabetes was induced in each of a seven-week-old male SD rats by intravenously administrating 60 mg/kg streptozotocin (STZ) to its tail. Fourteen days after the administration of STZ, 20 μl glacial acetic acid was administered into the skin of the left foot instep of each of the diabetic rats and control rats of the same age while anesthetized using ether, thereby causing necrosis at the portion. In the case when the necrotic cuticle of the skin remained two days after the necrosis, the cuticle was removed surgically. Then, the administration of FR136706 (0.2% solution in PEG (polyethylene glycol) 400) was started (50 μl to the affected portion). PEG400 was administered to the control group in a similar way. In a period between two days and 25 days after the administration of acetic acid, swelling scores (0: no swelling, 1: slight swelling, 2: intermediate swelling, 3: significant swelling) was checked visually, and the major axis length and the minor axis length of each ulcer was measured with vernier calipers. The area of each ulcer was calculated from the major axis length and the minor axis length thereof.

[2] = test system: foot ulcer induced by acetic acid; assay: Foot ulcer induced by acetic acid, normal rats (applied FR136706); format: in vivo, rat; conditions: for Ulcer area after administration of acetic acid / Swelling score after administration of acetic acid: normal rat, 0.2% in PEG400 applied, average, n=6; for Swelling score after administration of acetic acid: score 0-3
Protocol: as §1

[3] = qualitative, by solvent; known properties from earlier filings; cited from earlier work
[4] = diabetic rats, 0.2% solution in PEG400 applied
[5] = normal rats, 0.2% solution in PEG400 applied

CC(C)C(NC(=O)[C@@H]1CCCN1C(=O)[C@@H](NC(=O)c1ccc(C(=O)NCC(=O)[O-])cc1)C(C)C)C(=O)C(F)(F)F.[Na+] (mixture of isomers) [FR136706, Sodium salt of 3(RS)-[[4-(carboxymethylaminocarbonyl)phenylcarbonyl]-L-valyl-L-prolyl]amino-1,1,1-trifluoro-4-methyl-2-oxopentane]
Ulcer area after administration of acetic acid ([1]; after 2 days): 69.17 mm^2
Swelling score after administration of acetic acid ([1]; after 2 days): 2.2
Ulcer area after administration of acetic acid ([1]; after 8 days): 91.77 mm^2
Swelling score after administration of acetic acid ([1]; after 8 days): 2.8
Ulcer area after administration of acetic acid ([1]; after 11 days): 72.38 mm^2
Swelling score after administration of acetic acid ([1]; after 11 days): 2.5
Ulcer area after administration of acetic acid ([1]; after 15 days): 41.00 mm^2
Swelling score after administration of acetic acid ([1]; after 15 days): 1.5
Ulcer area after administration of acetic acid ([1]; after 18 days): 16.10 mm^2
Swelling score after administration of acetic acid ([1]; after 18 days): 1.5
Ulcer area after administration of acetic acid ([1]; after 22 days): 12.08 mm^2
Swelling score after administration of acetic acid ([1]; after 22 days): 1.2
Ulcer area after administration of acetic acid ([1]; after 25 days): 6.99 mm^2
Swelling score after administration of acetic acid ([1]; after 25 days, & significant at 5% vs PEG400 diabetic group): 0.7
Effect on contraction of ulcer areas (in words) [1, 4]: tended to promote the contraction of the ulcer areas of the diabetic rats
Effect on recovery of swelling scores (in words) [1, 4]: promoted the recovery of the diabetic rats
Ulcer area after administration of acetic acid ([2]; after 2 days): 58.37 mm^2
Swelling score after administration of acetic acid ([2]; after 2 days): 2.5
Ulcer area after administration of acetic acid ([2]; after 8 days): 71.42 mm^2
Swelling score after administration of acetic acid ([2]; after 8 days): 2.0
Ulcer area after administration of acetic acid ([2]; after 11 days): 53.21 mm^2
Swelling score after administration of acetic acid ([2]; after 11 days): 1.5
Ulcer area after administration of acetic acid ([2]; after 15 days): 18.32 mm^2
Swelling score after administration of acetic acid ([2]; after 15 days): 1.0
Ulcer area after administration of acetic acid ([2]; after 18 days): 0.69 mm^2
Swelling score after administration of acetic acid ([2]; after 18 days): 0.5
Ulcer area after administration of acetic acid ([2]; after 22 days): 0.00 mm^2
Swelling score after administration of acetic acid ([2]; after 22 days): 0.0
Ulcer area after administration of acetic acid ([2]; after 25 days): 0.00 mm^2
Swelling score after administration of acetic acid ([2]; after 25 days): 0.0
Effect on contraction of ulcer areas (in words) [2, 5]: did not act on the normal rats
Effect on recovery of swelling scores (in words) [2, 5]: did not act on the normal rats

Disodium salt of WS7622A disulfate ester
Solubility [3]: soluble: water, methanol; also recorded: insoluble: chloroform, n-hexane

Dipotassium salt of the WS7622A disulfate ester
Solubility [3]: soluble: water, methanol; also recorded: insoluble: chloroform, n-hexane

From US20030207432A1, “Remedies for intractable wound” (Fujisawa Pharmaceutical Co., Ltd.,, priority 1999, published 2003)
